Results published in patent publication US20160244452A1, “HETEROCYCLIC COMPOUNDS AND USES THEREOF” (INFINITY PHARMACEUTICALS, INC., priority 2014, published 2016).
pIC50: −log10 of the molar value.

What was measured:
[1] = molecular target: T1, α PI3K (Homo sapiens, UniProt P42336); assay: PI3-Kinase Promega ADP-Glo Max assay, α isoform; format: biochemical; settings: 20 nM kinase, 3 mM ATP, 500 uM diC8-PtdInsP
T1 construct: purchased Millipore
Method: (§1) PI3-Kinase Promega™ Assay
(§2) Promega ADP-Glo Max assay kit (Cat. No. V7002) was utilized to determine IC50 values for α, β, δ and γ isoforms of human Class I PI3 kinases (Millipore). Samples of kinase (20 nM α or δ, 40 nM β or γ isoform) were incubated with compound for 15 minutes at room temperature in reaction buffer (15 mM HEPES pH 7.4, 20 mM NaCl, 1 mM EGTA, 0.02% Tween 20, 10 mM MgCl2, 0.2 mg/mL bovine-γ-globulins) followed by addition of ATP/diC8-PtdInsP mixture to give final concentrations of 3 mM ATP and 500 uM diC8-PtdInsP. Reactions were incubated at room temperature for 2 hours followed by addition of 25 uL of stop solution. After a 40-minute incubation at room temperature, 50 uL of Promega detection mix was added followed by incubation for 1 hour at room temperature. Plates were then read on Envision plate reader in luminescence mode. Data was converted to % inhibition using the following equation below: […]
(§3) where S is the sample luminescence, Pos is a positive control without added PI3K, Neg is the negative control without added compound. Data was then plotted as % inhibition vs compound concentration. Data fit to 4 parameter logistic equation to determine IC50 values: […]
(§4) Certain compounds provided herein were tested in PI3-Kinase Promega Assay using procedures as described above to determine IC50 values for α, β, δ and/or γ isoforms.

[2] = molecular target: T2, p110 δ (Homo sapiens, UniProt O00329); assay: PI3K-δ selective cellular assay: phospho-AKT in anti-human IgM stimulated RAJI cells; format: cell-based; settings: serum-starved RAJI cells stimulated with anti-human IgM
T2 construct: endogenous in cells; host or cells: RAJI cells
Excerpt: (a) PI3K-δ Selective Assay
A compound's ability in selectively inhibiting PI3K-δ can be assessed using RAJI cells, i.e., B lymphocyte cells derived from lymphoma patients. Briefly, serum-starved RAJI cells are stimulated with anti-human IgM, thereby causing signaling through the B-cell receptors, as described in, for example, He et al., Leukemia Research (2009) 33: 798-802. B-cell receptor signaling is important for the activation, differentiation, and survival of B cells and certain B-cell derived cancers. Reduction of phospho-AKT is indicative of compounds that can inhibit B-cell proliferation and function in certain diseases. By monitoring the reduction of phospho-AKT in stimulated RAJI cells (using for example, phospho-AKT antibodies), a compound's potential efficacy in selectively inhibiting PI3Kδ can be assessed.
Certain compounds provided herein were tested in RAJI cell model using procedures as described above.

[3] = molecular target: T3, β PI3K (Homo sapiens, UniProt P42338); assay: PI3-Kinase Promega ADP-Glo Max assay, β isoform; format: biochemical; settings: 40 nM kinase, 3 mM ATP, 500 uM diC8-PtdInsP
T3 construct: purchased Millipore
T3 sequence (P42338 whole entry, canonical isoform): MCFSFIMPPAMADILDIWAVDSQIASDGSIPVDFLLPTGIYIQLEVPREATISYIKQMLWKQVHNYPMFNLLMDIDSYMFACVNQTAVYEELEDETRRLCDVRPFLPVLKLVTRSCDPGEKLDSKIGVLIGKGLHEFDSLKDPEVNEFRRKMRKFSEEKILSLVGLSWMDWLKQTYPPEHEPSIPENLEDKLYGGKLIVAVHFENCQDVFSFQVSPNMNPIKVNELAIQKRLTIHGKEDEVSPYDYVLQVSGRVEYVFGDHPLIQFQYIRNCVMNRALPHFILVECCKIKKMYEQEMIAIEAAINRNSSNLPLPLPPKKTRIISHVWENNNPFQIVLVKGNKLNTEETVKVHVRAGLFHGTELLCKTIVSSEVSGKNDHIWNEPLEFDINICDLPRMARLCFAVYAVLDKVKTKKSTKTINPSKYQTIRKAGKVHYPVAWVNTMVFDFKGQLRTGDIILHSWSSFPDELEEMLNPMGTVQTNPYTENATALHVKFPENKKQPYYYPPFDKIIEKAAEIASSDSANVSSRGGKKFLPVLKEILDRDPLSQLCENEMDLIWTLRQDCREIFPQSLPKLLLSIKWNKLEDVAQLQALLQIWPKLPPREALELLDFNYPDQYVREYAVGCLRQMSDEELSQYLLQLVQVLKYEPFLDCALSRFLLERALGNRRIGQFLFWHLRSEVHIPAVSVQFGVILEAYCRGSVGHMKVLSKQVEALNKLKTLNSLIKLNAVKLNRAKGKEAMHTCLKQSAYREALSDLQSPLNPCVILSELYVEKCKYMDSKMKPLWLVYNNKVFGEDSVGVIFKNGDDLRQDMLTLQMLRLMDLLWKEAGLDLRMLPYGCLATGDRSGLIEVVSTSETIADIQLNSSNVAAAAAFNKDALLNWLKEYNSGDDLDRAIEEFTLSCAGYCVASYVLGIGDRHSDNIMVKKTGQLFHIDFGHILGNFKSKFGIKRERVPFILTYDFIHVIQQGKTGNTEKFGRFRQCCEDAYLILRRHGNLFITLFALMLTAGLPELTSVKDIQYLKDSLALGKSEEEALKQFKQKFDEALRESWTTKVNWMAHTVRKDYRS
T3 sequence (P27986 whole entry partner, canonical isoform): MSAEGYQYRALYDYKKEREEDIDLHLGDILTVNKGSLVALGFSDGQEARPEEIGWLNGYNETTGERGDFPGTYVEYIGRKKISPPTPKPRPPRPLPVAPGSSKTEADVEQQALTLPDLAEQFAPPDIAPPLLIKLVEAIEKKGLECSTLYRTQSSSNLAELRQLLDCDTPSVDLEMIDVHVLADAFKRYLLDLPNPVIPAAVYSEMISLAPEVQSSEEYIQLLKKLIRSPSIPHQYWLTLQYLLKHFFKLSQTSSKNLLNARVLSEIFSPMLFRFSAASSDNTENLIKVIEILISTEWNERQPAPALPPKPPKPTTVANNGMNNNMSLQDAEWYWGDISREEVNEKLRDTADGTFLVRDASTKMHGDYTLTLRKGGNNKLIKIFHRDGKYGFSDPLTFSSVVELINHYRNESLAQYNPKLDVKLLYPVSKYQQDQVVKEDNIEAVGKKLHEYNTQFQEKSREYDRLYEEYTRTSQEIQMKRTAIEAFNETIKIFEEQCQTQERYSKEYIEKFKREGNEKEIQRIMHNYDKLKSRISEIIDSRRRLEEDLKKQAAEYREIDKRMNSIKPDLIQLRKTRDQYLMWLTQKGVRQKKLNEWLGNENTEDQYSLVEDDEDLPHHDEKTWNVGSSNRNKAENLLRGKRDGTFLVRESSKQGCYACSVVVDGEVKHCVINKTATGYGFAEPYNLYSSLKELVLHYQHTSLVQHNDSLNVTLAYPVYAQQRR
Method: as §1, §2, §3, §4

[4] = molecular target: T4, p110 γ (Mus musculus, UniProt Q9JHG7); assay: PI3K-γ selective cellular assay: phospho-AKT in C5a stimulated RAW264.7 macrophages; format: cell-based; settings: serum-starved RAW264.7 cells stimulated with C5a
T4 construct: endogenous in cells; host or cells: RAW264.7 macrophages
T4 sequence (Q9JHG7 whole entry): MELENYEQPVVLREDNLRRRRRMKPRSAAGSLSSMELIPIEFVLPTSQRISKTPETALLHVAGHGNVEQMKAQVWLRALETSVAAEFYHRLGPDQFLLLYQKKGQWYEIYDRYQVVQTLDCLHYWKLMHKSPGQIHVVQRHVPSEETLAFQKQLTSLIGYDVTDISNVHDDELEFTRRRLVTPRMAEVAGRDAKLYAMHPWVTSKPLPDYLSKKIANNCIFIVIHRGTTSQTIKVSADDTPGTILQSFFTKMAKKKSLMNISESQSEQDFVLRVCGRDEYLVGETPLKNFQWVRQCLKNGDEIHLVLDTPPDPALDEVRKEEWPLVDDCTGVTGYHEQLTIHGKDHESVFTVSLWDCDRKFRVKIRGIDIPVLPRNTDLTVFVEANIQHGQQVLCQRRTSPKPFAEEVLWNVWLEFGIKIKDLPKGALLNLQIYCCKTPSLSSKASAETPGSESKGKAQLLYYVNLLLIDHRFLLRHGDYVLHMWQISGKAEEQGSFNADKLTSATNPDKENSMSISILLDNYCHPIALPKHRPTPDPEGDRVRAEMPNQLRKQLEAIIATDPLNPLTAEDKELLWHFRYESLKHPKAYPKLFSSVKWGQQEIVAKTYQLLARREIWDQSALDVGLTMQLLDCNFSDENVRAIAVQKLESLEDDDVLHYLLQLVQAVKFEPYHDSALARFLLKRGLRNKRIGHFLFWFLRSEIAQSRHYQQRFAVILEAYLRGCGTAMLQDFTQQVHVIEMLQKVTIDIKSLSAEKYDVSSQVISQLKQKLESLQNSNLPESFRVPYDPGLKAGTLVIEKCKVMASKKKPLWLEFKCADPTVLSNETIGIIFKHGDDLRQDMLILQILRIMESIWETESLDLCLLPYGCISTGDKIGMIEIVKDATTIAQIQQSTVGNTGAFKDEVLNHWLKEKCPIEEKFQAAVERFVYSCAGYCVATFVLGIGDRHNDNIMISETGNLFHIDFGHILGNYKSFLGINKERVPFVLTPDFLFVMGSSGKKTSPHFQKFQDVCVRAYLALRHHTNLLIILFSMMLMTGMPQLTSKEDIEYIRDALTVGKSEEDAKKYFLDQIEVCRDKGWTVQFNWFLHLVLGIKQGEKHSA
Excerpt: (b) PI3K-γ Selective Assay
A compound's ability in selectively inhibiting PI3K-γ can be assessed using RAW264.7 macrophages. Briefly, serum-starved RAW264.7 cells are stimulated with a known GPCR agonist C5a. See, e.g., Camps et al., Nature Medicine (2005) 11(9):936-943. Cells can be treated with test compounds prior to, simultaneously with, or subsequent to the stimulation by C5a. RAW 264.7 cells respond to the complement component fragment C5a through activation of the C5a receptor, and the C5a receptor activates macrophages and induces cell migration. Test compounds' ability to inhibit C5a-mediated AKT phosphorylation is indicative of selective inhibition of PI3K-γ. Thus, by monitoring the reduction of phospho-AKT in stimulated RAW 264.7 cells (using for example, phospho-AKT antibodies), a compound's potential efficacy in selectively inhibiting PI3Kγ can be assessed.
Certain compounds provided herein were tested in RAW 264.7 cell model using procedures as described above.

[5] = molecular target: T5, δ PI3K (Homo sapiens, UniProt O00329); assay: PI3-Kinase Promega ADP-Glo Max assay, δ isoform; format: biochemical; settings: 20 nM kinase, 3 mM ATP, 500 uM diC8-PtdInsP
T5 construct: purchased Millipore
T5 sequence (O00329 whole entry, canonical isoform): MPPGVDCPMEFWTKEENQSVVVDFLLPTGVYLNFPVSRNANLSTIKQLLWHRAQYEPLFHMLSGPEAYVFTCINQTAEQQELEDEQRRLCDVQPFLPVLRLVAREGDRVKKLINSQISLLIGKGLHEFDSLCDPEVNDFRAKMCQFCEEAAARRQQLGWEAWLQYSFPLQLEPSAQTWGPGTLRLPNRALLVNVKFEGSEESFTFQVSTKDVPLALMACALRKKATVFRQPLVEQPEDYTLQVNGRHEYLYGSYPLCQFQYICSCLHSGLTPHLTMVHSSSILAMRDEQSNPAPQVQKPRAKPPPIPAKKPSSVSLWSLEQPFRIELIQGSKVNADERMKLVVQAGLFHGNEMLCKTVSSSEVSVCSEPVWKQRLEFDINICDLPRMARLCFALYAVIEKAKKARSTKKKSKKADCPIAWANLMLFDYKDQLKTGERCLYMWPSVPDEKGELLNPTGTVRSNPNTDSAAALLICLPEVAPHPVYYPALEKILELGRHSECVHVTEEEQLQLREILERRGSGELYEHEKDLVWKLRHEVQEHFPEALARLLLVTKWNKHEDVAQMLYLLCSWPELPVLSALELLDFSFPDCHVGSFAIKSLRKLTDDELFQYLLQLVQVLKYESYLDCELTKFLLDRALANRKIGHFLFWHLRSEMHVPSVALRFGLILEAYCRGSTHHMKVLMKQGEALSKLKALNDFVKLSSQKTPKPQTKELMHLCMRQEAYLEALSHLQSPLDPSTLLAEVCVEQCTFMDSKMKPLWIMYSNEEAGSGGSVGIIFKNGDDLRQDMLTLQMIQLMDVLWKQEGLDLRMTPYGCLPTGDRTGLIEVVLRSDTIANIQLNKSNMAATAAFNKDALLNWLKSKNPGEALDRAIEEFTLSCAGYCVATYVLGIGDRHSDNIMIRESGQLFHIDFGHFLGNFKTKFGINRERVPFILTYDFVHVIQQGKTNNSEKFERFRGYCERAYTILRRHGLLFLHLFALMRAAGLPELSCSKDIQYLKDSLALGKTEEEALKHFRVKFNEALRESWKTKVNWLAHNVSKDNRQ
T5 sequence (P27986 whole entry partner, canonical isoform): as the sequence (P27986 whole entry partner, canonical isoform) above
Method: as §1, §2, §3, §4

[6] = molecular target: T6, γ PI3K (Homo sapiens, UniProt P48736); assay: PI3-Kinase Promega ADP-Glo Max assay, γ isoform; format: biochemical; settings: 40 nM kinase, 3 mM ATP, 500 uM diC8-PtdInsP
T6 construct: purchased Millipore
T6 sequence (P48736 whole entry, canonical isoform): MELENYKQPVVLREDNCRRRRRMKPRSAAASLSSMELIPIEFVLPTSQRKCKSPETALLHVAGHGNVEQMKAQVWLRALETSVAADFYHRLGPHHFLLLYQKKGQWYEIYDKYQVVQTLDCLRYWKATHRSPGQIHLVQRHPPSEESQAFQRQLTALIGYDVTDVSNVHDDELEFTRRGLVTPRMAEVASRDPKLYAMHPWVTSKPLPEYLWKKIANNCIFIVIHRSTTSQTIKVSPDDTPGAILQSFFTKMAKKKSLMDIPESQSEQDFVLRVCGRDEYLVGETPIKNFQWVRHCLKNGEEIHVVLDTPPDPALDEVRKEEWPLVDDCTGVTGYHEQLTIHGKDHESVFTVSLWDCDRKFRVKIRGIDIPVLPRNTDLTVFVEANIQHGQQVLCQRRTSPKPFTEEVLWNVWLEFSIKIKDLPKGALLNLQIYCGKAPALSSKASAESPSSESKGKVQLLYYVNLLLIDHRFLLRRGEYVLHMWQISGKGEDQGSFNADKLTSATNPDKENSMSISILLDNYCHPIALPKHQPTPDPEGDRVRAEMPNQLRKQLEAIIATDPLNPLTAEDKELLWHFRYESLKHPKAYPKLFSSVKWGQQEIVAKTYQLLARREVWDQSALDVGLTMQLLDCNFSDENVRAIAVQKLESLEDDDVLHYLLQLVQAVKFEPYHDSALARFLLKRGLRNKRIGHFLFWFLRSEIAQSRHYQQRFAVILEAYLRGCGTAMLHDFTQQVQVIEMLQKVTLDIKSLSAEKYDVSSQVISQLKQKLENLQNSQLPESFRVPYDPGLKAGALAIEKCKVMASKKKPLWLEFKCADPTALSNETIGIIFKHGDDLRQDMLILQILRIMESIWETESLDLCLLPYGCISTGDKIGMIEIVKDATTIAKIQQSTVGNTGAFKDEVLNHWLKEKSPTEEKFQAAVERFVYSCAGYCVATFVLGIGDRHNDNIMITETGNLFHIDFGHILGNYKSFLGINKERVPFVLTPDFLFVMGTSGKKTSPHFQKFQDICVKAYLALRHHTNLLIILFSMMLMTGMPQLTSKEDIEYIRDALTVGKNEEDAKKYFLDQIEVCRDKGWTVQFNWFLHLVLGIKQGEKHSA
Method: as §1, §2, §3, §4

[7] = test system: BTK or MEK pathway; assay: Effect on BTK or MEK pathway

| SMILES | pIC50 [1] | pIC50 [2] | pIC50 [3] | pIC50 [4] | pIC50 [5] | pIC50 [6] | Effect on BTK or MEK pathway [7] |
| --- | --- | --- | --- | --- | --- | --- | --- |
| CC[C@H](Nc1ncnc2[nH]cnc12)c1cc2cccc(F)c2c(=O)n1-c1ccccc1 [1 s] | 5.00 to 5.46 | 8.00 to 9.00 | 5.46 to 7.00 | 5.46 to 7.00 | 7.00 to 8.00 | 5.46 to 7.00 | – |
| C[C@H](Nc1ncnc2[nH]cnc12)c1cc2ccc(F)c(Cl)c2c(=O)n1-c1ccccc1 [96 s] | 5.46 to 7.00 | 8.00 to 9.00 | 5.46 to 7.00 | 7.00 to 8.00 | 8.00 to 9.00 | 5.46 to 7.00 | – |
| CCC(Nc1ncnc2[nH]cnc12)c1cc2cccc(F)c2c(=O)n1-c1ccccc1 (stereo not shown) [Compound 1] | – | – | – | – | – | – | does not affect BTK or MEK pathway |
